Reference: patent publication US11384115B2, “Nuclear sulfated oxysterol, potent regulator of lipid homeostasis, for therapy of hypercholesterolemia, hypertriglycerides, fatty liver diseases, and atherosclerosis” (Virginia Commonwealth University, priority 2004, dated 2022)

How the values were obtained:
[1] = Single peritoneal injection in mice, serum lipids and serum enzymes; assay type: in vivo
Description: Administration to female mice (20-25 g weight) was by peritoneal injection once with or without 72 μg of the nuclear oxysterol in 100 μl of 0.9% NaCl containing 3 μl of ethanol. Twelve hrs following the injection, blood was harvested for analysis of triglycerides and cholesterol.

HepG2 cells = experiment: Cholesterol biosynthesis from [1-14C]acetate by TLC and HPLC; assay type: cell-based, human; conditions: HepG2, 25HC3S 6 hrs then [14C]acetate 4 hrs
Description: After incubation of HepG2 cells with media containing 25HC3S for 6 hrs, cultures in 25-cm2 flasks were given 3 ml of the same fresh medium containing 5 μCi of the [1-^14C]acetate. After 4 hr incubation at 37° C., the media were removed and the cells were washed twice with phosphate-saline buffer (PBS), harvested with rubber police as described, and collected in Eppendoff tubes. The cells were sedimented by centrifugation and the pellets were washed three times by resuspension and sedimentation. The pellets were resuspended in 0.3 ml of PBS. The total lipids were extracted and separated by adding 3 volume of chloroform:methanol (v/v, 1:1). [^14C]Cholesterol and 27-hydroxycholesterol was isolated into chloroform phase and separated on TLC (tuluene:acetyl acetate, 2/3, v/v/). [1-^14C]acetate derivatives were visualized by Image Reader, Fujifilm BAS-1800 II.
[1-^14C]Acetate derivatives in the chloroform phase were analyzed by HPLC on an Ultrasphere Silica column (5μ×4.6 mm×25 cm; Backman, USA) using HP Series 1100 solvent delivery system (Hewlett Packard) at 1.3 ml/min flow rate. The column was equilibrated and run in a solvent system of hexane:isopropanol:glacial acetic acid (965:25:10, v/v/v), as the mobile phase. The effluents were collected every 0.5 min (0.65 ml per fraction) except as indicated. The counts in [^14C]acetate derivatives were determined by Scintillation Counting. […]

PPARγ [2] = target: T1, PPARγ (Homo sapiens, UniProt P37231); experiment: Confocal immunofluorescence of intracellular PPARγ distribution in THP-1 macrophages; assay type: cell-based; conditions: compared with DMSO; 25 μM 25HC3S, 1 μM T0070907
T1 construct: THP-1 monocytes were differentiated to macrophages by adding 100 nM of phorbol 12-myristate 13-acetate (PMA); endogenous in cells; host or cells: THP-1 monocyte-derived macrophages (human, ATCC)
T1 sequence (P37231 1-505): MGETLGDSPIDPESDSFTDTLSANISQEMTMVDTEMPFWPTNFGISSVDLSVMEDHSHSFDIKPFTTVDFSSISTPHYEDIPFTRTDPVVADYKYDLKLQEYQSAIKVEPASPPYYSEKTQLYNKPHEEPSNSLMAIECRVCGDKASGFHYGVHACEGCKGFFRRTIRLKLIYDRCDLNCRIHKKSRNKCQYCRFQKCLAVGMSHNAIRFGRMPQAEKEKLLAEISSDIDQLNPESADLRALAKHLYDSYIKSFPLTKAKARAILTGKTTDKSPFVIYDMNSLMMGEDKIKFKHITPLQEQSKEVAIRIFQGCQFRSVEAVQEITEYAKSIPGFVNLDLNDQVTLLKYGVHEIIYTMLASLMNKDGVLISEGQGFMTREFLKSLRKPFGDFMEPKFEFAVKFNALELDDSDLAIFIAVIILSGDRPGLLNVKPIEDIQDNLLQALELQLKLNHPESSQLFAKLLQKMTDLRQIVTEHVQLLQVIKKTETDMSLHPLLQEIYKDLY
Description: Confocal microscopy analysis of intracellular translocation of PPARγ protein distribution. The nuclear marker was stained with DAP1 and PPARγ protein was detected by anti-PPARγ immunofluorescence.
THP-1 derived macrophages were cultured on coverslips in six-well plates and treated with different concentrations of 25HC and 25HC3S for 4 hrs. The cells on coverslips were washed with PBS, fixed with 3.7% formaldehyde for 10 min at 4° C., and then rinsed three times with PBS at room temperature. They were then permeabilized with PBS containing 0.1% of TritonX-100 for 3 min and washed with PBS before blocking by incubation with 5% of normal goat serum in PBS overnight at 4° C. For interaction with primary antibodies, cells were incubated with 2.5% normal goat serum in PBS containing PPARγ antibody for 1 hr in an incubator. Cells were washed in PBS containing 0.05% of Tween 20 (3×10 min). The bound primary antibodies were visualized with Alexa Fluor 488 goat anti-mouse IgG. The minor groove of double stranded DNA as a nuclear marker was stained by DAPI. Afterwashing, coverslips were mounted on slides and viewed with a Zeiss LSM 510 Meta confocal microscope.

PPARγ [3] = target: T1, PPARγ; experiment: PPARγ transcription factor assay (PPRE-immobilized ELISA) of nuclear extracts; assay type: cell-based; conditions: THP-1 macrophages, 4 hrs, concentration-dependent
Description: PPAR response elements (PPRE) binding activities were measured using an enzyme-linked immunosorbent assay (PPAR transcription factor assay kit; Cayman Chemical, Ann Arbor, Mich.). The 96-well plate was preimmobilized with deoxyoligonucleoties containing PPRE. […] The cells were then rinsed and nuclear proteins were extracted according to the manufacturer's instructions. Total nuclear extract protein, 10 g from each sample, was added to the plate. The kit provided two negative as zero controls, one positive as maximal binding control, and one competitive as specific binding control (in the presence of dsDNA) were used in the assay. After incubating for 1 hr, the wells were washed and incubated with primary PPAR antibody which recognizes the accessible epitope on PPAR protein upon PPRE binding. The peroxidase-labeled second antibody was added and incubated for 1 hr. The reaction was stopped and absorbance was read at 450 nm in a spectrophotometer.

[4] = system: ABCA1, ABCG1, ABCG5, ABCG8 gene expression; experiment: LXR targeting gene expression by real time RT-PCR in primary hepatocytes; assay type: cell-based, mouse
Text: FIG. 10. ABCA1 (A1), ABCG1 (G1), LDL receptor (LDLR), ABCG5 (G5), and ABCG8 (G8) gene expression in primary mouse hepatocytes following addition of the purified nuclear oxysterol. At 24 hrs following the addition, cells were harvested and total RNAs were extracted and gene expression levels were quantitated by real time RT-PCR. β-Actin mRNA was used as total mRNA internal standard. The gene expression levels in cells […] were compared with those in control cells. Ten μg of total RNA was used for cDNA preparation (RT) and 10 ng of cDNA was used for PCR. The expression levels were normalized to β-actin.
Preliminary experiments have shown that the purified nuclear oxysterol up-regulates bile acid synthesis. To further investigate the mechanism of this activity, the effect of purified 5-cholesten-3β, 25-diol 3-sulphate on gene expression of LXR-targeted cholesterol transport proteins ABCA1, ABCG1, ABCG5, ABCG8, and LDLR was investigated. Purified nuclear sulfated oxysterol was added to primary hepatocytes in culture, and mRNA levels of the transport proteins were quantitated by real time RT-PCR. The primer sets and TagMan probes for detection of mRNA levels were purchased from AB Applied Biosystem (Foster City, Calif.) and the reactions were performed on an MJ Research DNA Engine Opticon instrument.

primary rat hepatocytes = experiment: Bile acid synthesis rate, conversion of [14C]cholesterol into methanol/water-soluble products; assay type: cell-based; conditions: addition to primary rat hepatocytes
Description: FIGS. 9A-9B. Effect of the nuclear oxysterol on cholesterol uptake and bile acid biosynthesis. Rat primary hepatocyes were treated with nuclear extracts (methanol/water phase) (A and B) or purified nuclear oxysterol dissolved in control nuclear extract (C) 24 hrs after plating them. Then [^14C]cholesterol was added as described in FIG. 1. Culture media were then harvested at 0, 6, 12, and 24 hrs and radioactivity quantified (A). Bile acid synthesis rates (B and C) were measured as the conversion of [^14C]cholesterol into methanol/water extractable counts as described in (9). Bile acid synthetic rates were determined by the addition of 2.5 μCi of [^14C]cholesterol to each […] mm plate of confluent primary rat hepatocyte cultures ( 2.5×10^7 cells) 24 hrs after plating. Media and cells were harvested […]. Conversion of [^14C]cholesterol into [^14C]-methanol-water soluble products was determined by scintillation counting after extraction with chloroform-methanol (2:1, vol/vol) of cells and of culture media. Rates of bile acid biosynthesis following recombinant adenovirus infection were calculated as the ratio of [^14C]-methanol-water soluble counts to the sum of chloroform plus methanol-water counts. Individual bile acids were identified by HPLC analysis as described above. […] The phases were collected separately and counted.

[5] = female mice, 72 μg peritoneal injection once, 12 hrs
[6] = in vivo, only one administration
[7] = primary hepatocytes in culture, mRNA

C[C@H](CCCC(C)(C)O)[C@H]1CC[C@H]2[C@@H]3CC=C4C[C@@H](OS(=O)(=O)O)CC[C@]4(C)[C@H]3CC[C@]12C [25HC3S, 5-cholesten-3β, 25-diol 3-sulphate]
activities of alkaline phosphotase, SGPT and SGOT in sera ([1]; female mice, 72 μg peritoneal injection once): did not increase | decrease of cholesterol levels in serum [1, 5]: 15% | decrease of triglycerides in serum [1, 5]: 40% | HDL [1, 6]: significantly increases | decrease of serum cholesterol and triglyceride [1, 6]: 20% | free [14C]cholesterol synthesized from [14C]acetate (HepG2 cells): significantly decreased | nuclear PPARγ fluorescence intensities (PPARγ [2]): increased | PPRE-binding activities of the nuclear extracts (PPARγ [3]): significantly increased | increased expression of ABCA1 [4, 7]: 2 fold | increased expression of ABCG5 [4, 7]: 1.6 fold | increased expression of ABCG8 [4, 7]: 3 fold | expression of ABCG1 ([4]; primary hepatocytes, compared with control cells): did not change | effect on bile acid synthetic rates (primary rat hepatocytes): very similar to those in cells directly treated with the nuclear extracts from the StarD1 overexpressing cells
